Test results: ChEMBL document CHEMBL1201862, “PubChem BioAssay data set” (2004)
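Step 1: Grow cells in 96-well plates. Step 2: Expose to compound for 48 hours at 5 concentrations. Step 3: Interpolate endpoints linearly; if unreached, use highest concentration. At the GI50, growth is halved.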 Active and inactive are the calls of the source. Rule as the data show it: active = GI50 up to about 1.1 µM and inactive = higher.

How the values were obtained:
Test in all cases: NCI anticancer screen, dose series, 48 h
[1] = test system: SK-MEL-28
[2] = test system: SR
[3] = test system: MOLT-4
[4] = test system: OVCAR-8
[5] = test system: SF-268
[6] = test system: HT-29
[7] = test system: HCT-15
[8] = test system: OVCAR-5
[9] = test system: SF-539
[10] = test system: SK-MEL-5
[11] = test system: IGROV-1
[12] = test system: M19-MEL
[13] = test system: OVCAR-4
[14] = test system: UO-31
[15] = test system: SF-295
[16] = test system: COLO 205
[17] = test system: EKVX
[18] = test system: HCC 2998
[19] = test system: CAKI-1
[20] = test system: DLD-1
[21] = test system: SNB-19
[22] = test system: KM12
[23] = test system: HOP-18
[24] = test system: M14
[25] = test system: UACC-62
[26] = test system: K562
[27] = test system: RPMI-8226
[28] = test system: OVCAR-3
[29] = test system: DMS-114
[30] = test system: HOP-92
[31] = test system: TK-10
[32] = test system: Malme-3M
[33] = test system: A549
[34] = test system: U-251
[35] = test system: NCI-H23
[36] = test system: SK-MEL-2
[37] = test system: SNB-78
[38] = test system: HCT-116
[39] = test system: RXF 393
[40] = test system: HL-60
[41] = test system: SK-OV-3
[42] = test system: 786-0
[43] = test system: HOP-62
[44] = test system: NCI-H460
[45] = test system: A498
[46] = test system: LXFL 529
[47] = test system: SN12C
[48] = test system: CCRF-CEM
[49] = test system: NCI-H226
[50] = test system: NCI-H522
[51] = test system: SW-620
[52] = test system: SNB-75
[53] = test system: ACHN
[54] = test system: LOX IMVI
[55] = test system: UACC-257
[56] = test system: DMS-273
[57] = test system: KM-20L2

**Q.** How did the GI50 [1] turn out when `CC(O[Si](C)(C)C)C1C=CC(C)n2c(=O)n(-c3ccccc3)c(=O)n21` (configuration not stated) was run?
**A.** > 100 µM (inactive)

**Q.** What about the GI50 [2] of the same molecule?
**A.** > 100 µM (inactive)

**Q.** And the GI50 [3]?
**A.** > 100 µM (inactive)

**Q.** And the GI50 [4]?
**A.** > 100 µM (inactive)

**Q.** What about the GI50 [5] of the same molecule?
**A.** < 0.01 µM (active)

**Q.** What about the GI50 [6] of the same molecule?
**A.** > 100 µM (inactive)

**Q.** And the GI50 [7]?
**A.** > 100 µM

**Q.** What about the GI50 [8] of the same molecule?
**A.** > 100 µM (inactive)

**Q.** What about the GI50 [9] of the same molecule?
**A.** > 100 µM (inactive)

**Q.** And the GI50 [10]?
**A.** > 100 µM (inactive)

**Q.** And the GI50 [11]?
**A.** > 100 µM (inactive)

**Q.** And the GI50 [12]?
**A.** > 100 µM (inactive)

**Q.** What about the GI50 [13] of the same molecule?
**A.** > 100 µM (inactive)

**Q.** What about the GI50 [14] of the same molecule?
**A.** > 100 µM (inactive)

**Q.** What about the GI50 [15] of the same molecule?
**A.** > 100 µM (inactive)

**Q.** And the GI50 [16]?
**A.** > 100 µM (inactive)

**Q.** And the GI50 [17]?
**A.** > 100 µM (inactive)

**Q.** And the GI50 [18]?
**A.** > 100 µM (inactive)

**Q.** What about the GI50 [19] of the same molecule?
**A.** > 100 µM (inactive)

**Q.** And the GI50 [20]?
**A.** > 100 µM (inactive)

**Q.** What about the GI50 [21] of the same molecule?
**A.** > 100 µM (inactive)

**Q.** What about the GI50 [22] of the same molecule?
**A.** > 100 µM (inactive)

**Q.** And the GI50 [23]?
**A.** > 100 µM (inactive)

**Q.** What about the GI50 [24] of the same molecule?
**A.** > 100 µM (inactive)

**Q.** What about the GI50 [25] of the same molecule?
**A.** > 100 µM (inactive)

**Q.** What about the GI50 [26] of the same molecule?
**A.** > 100 µM (inactive)

**Q.** And the GI50 [27]?
**A.** > 100 µM (inactive)

**Q.** What about the GI50 [28] of the same molecule?
**A.** > 100 µM (inactive)

**Q.** And the GI50 [29]?
**A.** > 100 µM (inactive)

**Q.** And the GI50 [30]?
**A.** < 0.01 µM (active)

**Q.** What about the GI50 [31] of the same molecule?
**A.** > 100 µM (inactive)

**Q.** And the GI50 [32]?
**A.** > 100 µM (inactive)

**Q.** What about the GI50 [33] of the same molecule?
**A.** > 100 µM (inactive)

**Q.** What about the GI50 [34] of the same molecule?
**A.** > 100 µM (inactive)

**Q.** And the GI50 [35]?
**A.** > 100 µM (inactive)

**Q.** And the GI50 [36]?
**A.** > 100 µM (inactive)

**Q.** And the GI50 [37]?
**A.** > 100 µM (inactive)

**Q.** And the GI50 [38]?
**A.** > 100 µM (inactive)

**Q.** And the GI50 [39]?
**A.** > 100 µM (inactive)

**Q.** What about the GI50 [40] of the same molecule?
**A.** > 100 µM (inactive)

**Q.** And the GI50 [41]?
**A.** > 100 µM (inactive)

**Q.** What about the GI50 [42] of the same molecule?
**A.** > 100 µM (inactive)

**Q.** What about the GI50 [43] of the same molecule?
**A.** > 100 µM (inactive)

**Q.** What does the source list for `COC12OCCN(C)C1=CC(=O)C1(C)N=NCC12` (configuration not stated)?
**A.** GI50 [1]: > 100 µM (inactive); GI50 [3]: > 100 µM (inactive); GI50 [4]: > 100 µM (inactive); GI50 [6]: > 100 µM (inactive); GI50 [44]: > 100 µM (inactive); GI50 [45]: > 100 µM (inactive); GI50 [7]: > 100 µM; GI50 [46]: > 100 µM (inactive); GI50 [9]: > 100 µM (inactive); GI50 [10]: > 100 µM (inactive); GI50 [11]: > 100 µM (inactive); GI50 [12]: > 100 µM (inactive); GI50 [14]: > 100 µM (inactive); GI50 [15]: > 100 µM (inactive); GI50 [47]: > 100 µM (inactive); GI50 [48]: > 100 µM (inactive); GI50 [16]: > 100 µM (inactive); GI50 [17]: > 100 µM (inactive); GI50 [49]: > 100 µM (inactive); GI50 [18]: > 100 µM (inactive); GI50 [19]: > 100 µM (inactive); GI50 [20]: > 100 µM (inactive); GI50 [22]: > 100 µM (inactive); GI50 [23]: > 100 µM (inactive); GI50 [50]: > 100 µM (inactive); GI50 [51]: > 100 µM (inactive); GI50 [24]: > 100 µM (inactive); GI50 [25]: > 100 µM (inactive); GI50 [26]: > 100 µM (inactive); GI50 [27]: > 100 µM (inactive); GI50 [28]: > 100 µM (inactive); GI50 [52]: > 100 µM (inactive); GI50 [29]: > 100 µM (inactive); GI50 [30]: > 100 µM (inactive); GI50 [31]: > 100 µM (inactive); GI50 [32]: > 100 µM (inactive); GI50 [33]: > 100 µM (inactive); GI50 [34]: > 100 µM (inactive); GI50 [35]: > 100 µM (inactive); GI50 [37]: > 100 µM (inactive); GI50 [38]: > 100 µM (inactive); GI50 [39]: > 100 µM (inactive); GI50 [53]: > 100 µM (inactive); GI50 [41]: > 100 µM (inactive); GI50 [54]: > 100 µM (inactive); GI50 [42]: > 100 µM (inactive); GI50 [55]: > 100 µM (inactive); GI50 [56]: > 100 µM (inactive)

**Q.** How did the GI50 [1] turn out when `COc1ccccc1NC(=O)NS(=O)(=O)c1ccccc1` was run?
**A.** > 100 µM (inactive)

**Q.** And the GI50 [4]?
**A.** > 100 µM (inactive)

**Q.** And the GI50 [5]?
**A.** > 100 µM (inactive)

**Q.** What about the GI50 [6] of the same molecule?
**A.** > 100 µM (inactive)

**Q.** And the GI50 [44]?
**A.** > 100 µM (inactive)

**Q.** What about the GI50 [8] of the same molecule?
**A.** > 100 µM (inactive)

**Q.** And the GI50 [46]?
**A.** > 100 µM (inactive)

**Q.** And the GI50 [9]?
**A.** > 100 µM (inactive)

**Q.** And the GI50 [10]?
**A.** > 100 µM (inactive)

**Q.** What about the GI50 [12] of the same molecule?
**A.** > 100 µM (inactive)

**Q.** And the GI50 [13]?
**A.** > 100 µM (inactive)

**Q.** And the GI50 [14]?
**A.** > 100 µM (inactive)

**Q.** And the GI50 [15]?
**A.** > 100 µM (inactive)

**Q.** And the GI50 [47]?
**A.** > 100 µM (inactive)

**Q.** And the GI50 [16]?
**A.** > 100 µM (inactive)

**Q.** And the GI50 [17]?
**A.** 88.7 µM (inactive)

**Q.** And the GI50 [49]?
**A.** 87.1 µM (inactive)

**Q.** What about the GI50 [18] of the same molecule?
**A.** > 100 µM (inactive)

**Q.** What about the GI50 [19] of the same molecule?
**A.** 91.6 µM (inactive)

**Q.** And the GI50 [20]?
**A.** > 100 µM (inactive)

**Q.** And the GI50 [21]?
**A.** > 100 µM (inactive)

**Q.** What about the GI50 [22] of the same molecule?
**A.** > 100 µM (inactive)

**Q.** And the GI50 [23]?
**A.** 48.2 µM (inactive)

**Q.** What about the GI50 [50] of the same molecule?
**A.** 63.7 µM (inactive)

**Q.** What about the GI50 [51] of the same molecule?
**A.** > 100 µM (inactive)

**Q.** And the GI50 [24]?
**A.** > 100 µM (inactive)

**Q.** What about the GI50 [52] of the same molecule?
**A.** > 100 µM (inactive)

**Q.** What about the GI50 [29] of the same molecule?
**A.** > 100 µM (inactive)

**Q.** And the GI50 [30]?
**A.** > 100 µM (inactive)

**Q.** What about the GI50 [31] of the same molecule?
**A.** > 100 µM (inactive)

**Q.** What about the GI50 [32] of the same molecule?
**A.** > 100 µM (inactive)

**Q.** And the GI50 [33]?
**A.** > 100 µM (inactive)

**Q.** And the GI50 [34]?
**A.** > 100 µM (inactive)

**Q.** And the GI50 [35]?
**A.** > 100 µM (inactive)

**Q.** And the GI50 [36]?
**A.** > 100 µM (inactive)

**Q.** What about the GI50 [37] of the same molecule?
**A.** > 100 µM (inactive)

**Q.** What about the GI50 [38] of the same molecule?
**A.** > 100 µM (inactive)

**Q.** What about the GI50 [39] of the same molecule?
**A.** 28.9 µM (inactive)

**Q.** What about the GI50 [53] of the same molecule?
**A.** 58.3 µM (inactive)

**Q.** And the GI50 [40]?
**A.** > 100 µM (inactive)

**Q.** And the GI50 [57]?
**A.** > 100 µM (inactive)

**Q.** What about the GI50 [54] of the same molecule?
**A.** > 100 µM (inactive)

**Q.** What about the GI50 [42] of the same molecule?
**A.** > 100 µM (inactive)

**Q.** What about the GI50 [43] of the same molecule?
**A.** 69.2 µM (inactive)

**Q.** What about the GI50 [55] of the same molecule?
**A.** > 100 µM (inactive)

**Q.** What about the GI50 [56] of the same molecule?
**A.** > 100 µM (inactive)
